Reference: ChEMBL document CHEMBL1158466, “Discovery of novel 2-aminobenzamide inhibitors of heat shock protein 90 as potent, selective and orally active antitumor agents” (J Med Chem, 2009)

Assays:
Heat shock protein HSP90 [1] = biological target: T1, Heat shock protein HSP90 (Homo sapiens, UniProt P07900+P08238); type: cell-based; conditions: au565
[2] = Binding affinity to pig spleen Hsp90 ATPase pocket by Bradford assay; type: tissue-based, Sus scrofa
A-375 = experiment: Antiproliferative activity against human A375 cells after 72 to 144 hrs by cyquant DNA dye method; type: functional, cell-based
LNCaP = experiment: Antiproliferative activity against human LNCAP cells after 72 to 144 hrs by cyquant DNA dye method; type: functional, cell-based
MCF7 = experiment: Antiproliferative activity against human MCF7 cells after 72 to 144 hrs by cyquant DNA dye method; type: functional, cell-based
HT-29 [3] = experiment: Antiproliferative activity against human HT-29 cells after 72 to 144 hrs by cyquant DNA dye method; type: functional, cell-based
SW-620 = experiment: Antiproliferative activity against human SW620 cells after 72 to 144 hrs by cyquant DNA dye method; type: functional, cell-based
SK-MEL-5 = experiment: Antiproliferative activity against human SK-MEL-5 cells after 72 to 144 hrs by cyquant DNA dye method; type: functional, cell-based
PC-3 = experiment: Antiproliferative activity against human PC3 cells after 72 to 144 hrs by cyquant DNA dye method; type: functional, cell-based
MDA-MB-231 = experiment: Antiproliferative activity against human MDA-MB-231 cells after 72 to 144 hrs by cyquant DNA dye method; type: functional, cell-based
NCI-H460 = experiment: Antiproliferative activity against human NCI-H460 cells after 72 to 144 hrs by cyquant DNA dye method; type: functional, cell-based
HCT-15 = experiment: Antiproliferative activity against human HCT15 cells after 72 to 144 hrs by cyquant DNA dye method; type: functional, cell-based
K562 = experiment: Antiproliferative activity against human K562 cells after 72 to 144 hrs by cyquant DNA dye method; type: functional, cell-based
[4] = Solubility at pH 4 to […]; type: physicochemical; conditions: buffer
[5] = Tmax in Swiss Webster mouse at 10 mg/kg, iv; type: ADME, organism-based; design: dose 10 mg/kg, route intravenous; conditions: in vivo
[6] = Tmax in Swiss Webster mouse at 10 mg/kg, po; type: ADME, organism-based; design: dose 10 mg/kg, route oral; conditions: in vivo
[7] = Tmax in Swiss Webster mouse at 25 mg/kg, po; type: ADME, organism-based; design: dose 25 mg/kg, route oral; conditions: in vivo
[8] = Tmax in Swiss Webster mouse at 50 mg/kg, po; type: ADME, organism-based; design: dose 50 mg/kg, route oral; conditions: in vivo
[9] = Cmax in Swiss Webster mouse at 10 mg/kg, iv; type: ADME, organism-based; design: dose 10 mg/kg, route intravenous; conditions: in vivo
[10] = Cmax in Swiss Webster mouse at 10 mg/kg, po; type: ADME, organism-based; design: dose 10 mg/kg, route oral; conditions: in vivo
[11] = Cmax in Swiss Webster mouse at 25 mg/kg, po; type: ADME, organism-based; design: dose 25 mg/kg, route oral; conditions: in vivo
[12] = Cmax in Swiss Webster mouse at 50 mg/kg, po; type: ADME, organism-based; design: dose 50 mg/kg, route oral; conditions: in vivo
[13] = AUC (infinity) in Swiss Webster mouse at 10 mg/kg, iv; type: ADME, organism-based; design: time infinity, dose 10 mg/kg, route intravenous; conditions: plasma
[14] = AUC (infinity) in Swiss Webster mouse at 10 mg/kg, po; type: ADME, organism-based; design: time infinity, dose 10 mg/kg, route oral; conditions: plasma
[15] = AUC (infinity) in Swiss Webster mouse at 25 mg/kg, po; type: ADME, organism-based; design: time infinity, dose 25 mg/kg, route oral; conditions: plasma
[16] = AUC (infinity) in Swiss Webster mouse at 50 mg/kg, po; type: ADME, organism-based; design: time infinity, dose 50 mg/kg, route oral; conditions: plasma
[17] = Half life in Swiss Webster mouse at 10 mg/kg, iv; type: ADME, organism-based; design: dose 10 mg/kg, route intravenous; conditions: in vivo
[18] = Half life in Swiss Webster mouse at 10 mg/kg, po; type: ADME, organism-based; design: dose 10 mg/kg, route oral; conditions: in vivo
[19] = Half life in Swiss Webster mouse at 25 mg/kg, po; type: ADME, organism-based; design: dose 25 mg/kg, route oral; conditions: in vivo
[20] = Half life in Swiss Webster mouse at 50 mg/kg, po; type: ADME, organism-based; design: dose 50 mg/kg, route oral; conditions: in vivo
Mus musculus [21] = experiment: Apparent volume of distribution with respect to bioavailability in Swiss Webster mouse at 10 mg/kg, iv; type: ADME, organism-based; conditions: in vivo
[22] = Apparent volume of distribution with respect to bioavailability in Swiss Webster mouse at 10 mg/kg, po; type: ADME, organism-based; conditions: in vivo, read-out: Vc/F
[23] = Apparent volume of distribution with respect to bioavailability in Swiss Webster mouse at 25 mg/kg, po; type: ADME, organism-based; conditions: in vivo, read-out: Vc/F
[24] = Apparent volume of distribution with respect to bioavailability in Swiss Webster mouse at 50 mg/kg, po; type: ADME, organism-based; conditions: in vivo, read-out: Vc/F
[25] = Apparent oral clearance in Swiss Webster mouse at 10 mg/kg, po; type: ADME, organism-based; design: dose 10 mg/kg, route oral; conditions: in vivo
[26] = Apparent oral clearance in Swiss Webster mouse at 25 mg/kg, po; type: ADME, organism-based; design: dose 25 mg/kg, route oral; conditions: in vivo
[27] = Apparent oral clearance in Swiss Webster mouse at 50 mg/kg, po; type: ADME, organism-based; design: dose 50 mg/kg, route oral; conditions: in vivo
HT-29 [28] = experiment: Antitumor activity against human HT-29 cells xenografted nu/nu mouse assessed as tumor growth delay at 50 mg/kg, po administered 3 times a week for 3 weeks; type: functional
HT-29 [29] = experiment: Antitumor activity against human HT-29 cells xenografted nu/nu mouse assessed as median time for tumor to reach end point at 50 mg/kg, po administered 3 times a week for 3 weeks; type: functional
HT-29 [30] = experiment: Antitumor activity against human HT-29 cells xenografted nu/nu mouse assessed as tumor growth delay at 25 mg/kg, po administered 3 times a week for 3 weeks; type: functional
Mus musculus [31] = experiment: Toxicity in nu/nu mouse assessed as effect on body weight at 5 to 50 mg/kg, po; type: organism-based; design: dose 5-50 mg/kg, route oral; conditions: in vivo
Mus musculus [32] = experiment: Toxicity in nu/nu mouse assessed as mortality at 5 to 50 mg/kg, po; type: organism-based; design: dose 5-50 mg/kg, route oral; conditions: in vivo
Heat shock protein HSP90 [33] = biological target: T1, Heat shock protein HSP90; conditions: a-375
Description: Inhibition of Hsp90 in human A375 cells assessed as Hsp70 induction after 24 hrs by high content screening

Heat shock protein HSP90 [34] = biological target: T1, Heat shock protein HSP90; conditions: a-375; remark: listed apart in the source
Description: Inhibition of Hsp90 in human A375 cells assessed as pS6 degradation after 24 hrs by high content screening

Heat shock protein HSP90 [35] = biological target: T1, Heat shock protein HSP90; conditions: au565
Description: Inhibition of Hsp90 in human AU565 cells assessed as pERK degradation after 24 hrs by high content screening

[36] = Clearance in Swiss Webster mouse at 10 mg/kg, iv; conditions: in vivo

In the case of `CC1(C)CC(=O)c2c(C(F)(F)F)nn(-c3ccc(C(N)=O)c(N[C@H]4CC[C@H](OC(=O)CN)CC4)c3)c2C1.CS(=O)(=O)O`, the IC50 (Heat shock protein HSP90 [1]) is reported as 5 nM, the Kd [2] is reported as 41 nM and the IC50 (A-375) is reported as 51 nM. The IC50 (LNCaP) was 31 nM, the IC50 (MCF7) was 16 nM and the IC50 (HT-29 [3]) was 32 nM. The IC50 (SW-620) was 19 nM, the IC50 (SK-MEL-5) was 25 nM and the IC50 (PC-3) was 114 nM. For the same compound, the IC50 (MDA-MB-231) was 38 nM, the IC50 (NCI-H460) was 215 nM and the IC50 (HCT-15) was 190 nM. The IC50 (K562) was 23 nM, the solubility [4] was 1000 µg/mL and the Tmax [5] was 4.98 min. For the same compound, the Tmax [6] was 1 h, the Tmax [7] was 1 h and the Tmax [8] was 2 h. For the same compound, the Cmax [9] was 4460 ng/mL, the Cmax [10] was 747 ng/mL and the Cmax [11] was 2150 ng/mL. For the same compound, the Cmax [12] was 4020 ng/mL, the AUC(0-inf) [13] was 4870 ng·h/mL and the AUC(0-inf) [14] was 3970 ng·h/mL. The AUC(0-inf) [15] was 11000 ng·h/mL, the AUC(0-inf) [16] was 25200 ng·h/mL and the half-life [17] was 156 min. For the same compound, the half-life [18] was 150 min, the half-life [19] was 174 min and the half-life [20] was 198 min. The Vc/F (Mus musculus [21]) was 7846 mL/kg, the Vd/F [22] was 8.93 L/kg and the Vd/F [23] was 9.59 L/kg. It also gave a Vd/F [24] of 9.55 L/kg, a CL/F [25] of 42 mL/min/kg and a CL/F [26] of 37.9 mL/min/kg. It also gave a CL/F [27] of 33.1 mL/min/kg, an Activity (HT-29 [28]) of 67% and an Activity (HT-29 [29]) of 43.2 days. For the same compound, the Activity (HT-29 [30]) was 14%, the Activity (Mus musculus [31]) was “Non-toxic” and the Activity (Mus musculus [32]) was “Non-toxic”. For the same compound, the IC50 (Heat shock protein HSP90 [33]) was 13 nM, the IC50 (Heat shock protein HSP90 [34]) was 61 nM and the IC50 (Heat shock protein HSP90 [35]) was 11 nM. The clearance [36] was 34.2 mL/min/kg.
